Data as given in US20240109905A1, “4-ALKOXY-6-OXO-PYRIDAZINE DERIVATIVES MODULATING NLRP3” (JANSSEN PHARMACEUTICA NV, priority 2021, published 2024).

Legend:
TNF = assay: PBMC assay: TNF cytokine level after LPS stimulation; format: cell-based; conditions: PBMC; human PBMCs, 30 min compound, 100 ng/ml LPS for 6 hrs, MSD
Outline: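 Thawed human PBMCs from healthy donors (7.5×10^4 per well, RPMI + 10% FBS) preincubated 30 min at 37° C with 1:3 serially diluted compounds, then stimulated 6 h with 100 ng/ml LPS (final). Supernatant TNF measured by MSD immunoassay; EC50/AC50 derived.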

IL-1β = assay: PBMC assay: IL-1β release after LPS stimulation; format: cell-based; conditions: PBMC; human PBMCs, 30 min compound, 100 ng/ml LPS for 6 hrs, MSD; read-out: IL1β AC50
Outline: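 Thawed PBMCs from healthy donors (7.5×10^4 cells/well) were preincubated with serially diluted compound for 30 min at 37 °C, then stimulated with 100 ng/ml LPS (final) for 6 h. IL-1β in the supernatant was measured by MSD immunoassay, and AC50 values were derived from the concentration-response data.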

| Structure (SMILES) | AC50 (TNF) | AC50 (IL-1β) |
| --- | --- | --- |
| CCCOc1c(C(C)C)nn(CC(=O)Nc2ccc3nncn3c2)c(=O)c1Cl [Compound 84] | 19400 nM | 630 nM |
| COc1cc(=O)n(CC(=O)Nc2ccc3nncn3c2)nc1C(C)C [Compound 162] | > 20000 nM | > 20000 nM |
| CC(C)c1nn(CC(=O)Nc2ccc3nncn3c2)c(=O)cc1OC1CN(C(=O)OC(C)(C)C)C1 [Compound 3F] | > 10000 nM | > 15000 nM |
| Cc1c(OCC(C)C)c(C(C)C)nn(CC(=O)Nc2ccc3nccn3n2)c1=O [Compound 68] | > 20000 nM | 240 nM |
| CC(C)COc1cc(=O)n(CC(=O)Nc2cc3ncccn3n2)nc1C(C)C [Compound 103] | > 20000 nM | 1100 nM |
| CC(C)COc1cc(=O)n(CC(=O)Nc2nc3ncccn3n2)nc1C(C)C [Compound 77] | > 20000 nM | 400 nM |
| CC(C)COc1cc(=O)n(CC(=O)Nc2nc3cnccn3n2)nc1C(C)C [Compound 43] | > 20000 nM | 70 nM |
| CC(C)COc1c(C(C)C)nn(CC(=O)Nc2ccc3nncn3c2)c(=O)c1F [Compound 61] | > 20000 nM | 160 nM |
